# T1: Lysozyme (Homo sapiens, UniProt P61626)
# T1 sequence (P61626 19-148): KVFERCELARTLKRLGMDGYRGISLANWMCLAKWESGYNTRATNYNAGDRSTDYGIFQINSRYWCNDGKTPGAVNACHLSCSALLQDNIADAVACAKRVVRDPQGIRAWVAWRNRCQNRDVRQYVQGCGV
# T2: α-amylase (Homo sapiens, UniProt P0DUB6)
# T2 sequence (P0DUB6 16-511): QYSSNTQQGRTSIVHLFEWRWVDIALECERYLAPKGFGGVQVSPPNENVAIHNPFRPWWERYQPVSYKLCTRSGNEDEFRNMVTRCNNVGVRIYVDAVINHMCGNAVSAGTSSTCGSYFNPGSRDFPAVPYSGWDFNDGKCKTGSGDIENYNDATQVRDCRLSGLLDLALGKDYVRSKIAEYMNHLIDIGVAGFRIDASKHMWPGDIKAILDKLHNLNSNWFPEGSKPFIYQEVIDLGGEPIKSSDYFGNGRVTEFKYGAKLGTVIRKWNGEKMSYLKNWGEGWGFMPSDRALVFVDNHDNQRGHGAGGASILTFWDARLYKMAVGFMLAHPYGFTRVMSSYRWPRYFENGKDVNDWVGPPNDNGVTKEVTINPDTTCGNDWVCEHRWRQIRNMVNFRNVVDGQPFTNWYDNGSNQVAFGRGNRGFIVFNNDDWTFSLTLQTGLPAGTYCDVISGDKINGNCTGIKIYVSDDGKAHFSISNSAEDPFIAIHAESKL
# B1: Soybeans: primary soybean protease inhibitor, 20.7-22.3 kDa (protein, UniProt P01070 25-205, looked up)
# Trypsin inhibitor A: DFVLDNEGNPLENGGTYYILSDITAFGGIRAAPTGNERCPLTVVQSRNELDKGIGTIISSPYRIRFIAEGHPLSLKFDSFAVIMLCVGIPTEWSVVEDLPEGPAVKIGENKDAMDGWFRLERVSDDEFNNYKLVFCPQQAEDDKCGDIGISIDHDDGTRRLVVSKNKPLVVQFQKLDKESL
# What was measured:
# peroxidase = experiment: Peroxidase assay in saliva (Amplex Red); assay type: biochemical; conditions: test compound prepared at 500 ppm, 30 minutes, FIGS. 26-29
# Experimental: To determine the effect of various GRAS compounds as inhibitors of peroxidase activity, a standard assay using Amplex® Red (Life Technologies), which releases a fluorescent oxidation product.
# The test compounds, such as GRAS materials or cocktails of same, were prepared at a concentration of 500 ppm in distilled water. For the assay, 50 μl samples of test compounds were mixed with 20-30 μl of saliva (either “pooled” or “unpooled”) prior to the addition of Amplex® Red. […] Reactions were allowed to run for 30 minutes during these assays.
# Lysozyme = target: T1, Lysozyme; experiment: Lysozyme inhibition saliva screening (fluorescein-labeled Micrococcus lysodeikticus); assay type: biochemical; conditions: 100% saliva samples (data not shown)
# Excerpt: Further details of these five compounds may also be seen in Table 5.
# α-amylase = target: T2, α-amylase; experiment: α-Amylase inhibition saliva screening (2-chloro-p-nitrophenol-maltotriose substrate, absorbance 405 nm); assay type: biochemical
# Excerpt: Further details of these five compounds may also be seen in Table 4.
# protease = conditions: cited from earlier work
Molecule,peroxidase inhibition (peroxidase),Ave (absorbance at 405 nm) (α-amylase; Time 0 min),further results
"Cn1c(=O)c2c(ncn2C)n(C)c1=O [CDI #33, Caffeine]",significant peroxidase inhibition capabilities,,
"COc1ccc(O)c(C(C)(C)C)c1 [CDI-039, 3-tert--butyl-hydroxyanisole]",significant peroxidase inhibition capabilities,,
"CC(=O)O [CDI-047, Acetic acid]",,,Lysozyme inhibition (Lysozyme): shown to inhibit Lysozyme
Aluminum potassium sulfate dodecahydrate [CDI-42],significant peroxidase inhibition capabilities,0.92,
Aluminum sulfate hydrate [CDI-34],,0.40,Ave (absorbance at 405 nm) (α-amylase; Time 5 min): 0.50; Ave (absorbance at 405 nm) (α-amylase; Time 15 min): 0.56
B1,,,Inhibitory power (protease): 1.2 times times weight

# — patent US8318641B2, “Systems and methods for the detection of biomarkers” (priority 2010, dated 2012)
